Measurements: PubChem BioAssay (NCI)
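Assay format: 96-well plates, 48-hour exposure. GI50 is the concentration that inhibits growth by half. TGI is the concentration that stops growth completely.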

Legend:
Experiment in all cases: growth of human tumour cells (NCI), 48 h
[1] = test system: SK-OV-3 ovarian
[2] = test system: HCT-15 colon
[3] = test system: MDA-MB-231 breast
[4] = test system: PC-3 prostate
[5] = test system: KM12 colon
[6] = test system: NCI-H522 lung
[7] = test system: OVCAR-8 ovarian
[8] = test system: HS 578T breast
[9] = test system: HT29 colon
[10] = test system: HCT-116 colon
[11] = test system: CAKI-1 renal
[12] = test system: SF-268 CNS
[13] = test system: RPMI-8226 leukemia
[14] = test system: SF-295 CNS
[15] = test system: T-47D breast
[16] = test system: OVCAR-4 ovarian
[17] = test system: COLO 205 colon
[18] = test system: UACC-62 melanoma
[19] = test system: K-562 leukemia
[20] = test system: OVCAR-3 ovarian
[21] = test system: SN12C renal
[22] = test system: LOX IMVI melanoma
[23] = test system: DU-145 prostate
[24] = test system: U251 CNS
[25] = test system: IGROV1 ovarian
[26] = test system: MOLT-4 leukemia
[27] = test system: NCI-H226 lung
[28] = test system: HOP-62 NSCLC
[29] = test system: RXF 393 renal
[30] = test system: SNB-19 CNS
[31] = test system: NCI-H460 lung
[32] = test system: SNB-75 CNS
[33] = test system: OVCAR-5 ovarian
[34] = test system: SK-MEL-28 melanoma
[35] = test system: MALME-3M melanoma
[36] = test system: NCI/ADR-RES ovarian
[37] = test system: HCC-2998 colon
[38] = test system: MCF7 breast
[39] = test system: HL-60(TB) leukemia
[40] = test system: TK-10 renal
[41] = test system: 786-0 renal
[42] = test system: SW-620 colon
[43] = test system: BT-549 breast
[44] = test system: A549 NSCLC
[45] = test system: A498 renal
[46] = test system: UACC-257 melanoma
[47] = test system: M14 melanoma
[48] = test system: EKVX NSCLC
[49] = test system: UO-31 renal
[50] = test system: MDA-MB-435
[51] = test system: ACHN renal
[52] = test system: NCI-H23 lung
[53] = test system: HOP-92 NSCLC
[54] = test system: SF-539 CNS
[55] = test system: CCRF-CEM leukemia
[56] = test system: SK-MEL-5 melanoma
[57] = test system: SR leukemia
[58] = test system: SK-MEL-2 melanoma

Work on `Cc1[nH]c(=O)nc(Nc2ccc(Cl)cc2)c1C(=O)N1CCN(CCO)CC1` yielded a GI50 [1] of 29.8 µM, a TGI [1] of 83.1 µM and a GI50 [2] greater than 100 µM. It also gave a TGI [2] greater than 100 µM, a GI50 [3] of 46.3 µM and a TGI [3] greater than 100 µM. It also gave a GI50 [4] greater than 100 µM, a TGI [4] greater than 100 µM and a GI50 [5] greater than 100 µM. The TGI [5] was greater than 100 µM, the GI50 [6] was 59.8 µM and the TGI [6] was greater than 100 µM. The GI50 [7] was 72 µM, the TGI [7] was greater than 100 µM and the GI50 [8] was 34.2 µM. The TGI [8] was greater than 100 µM, the GI50 [9] was greater than 100 µM and the TGI [9] was greater than 100 µM. The GI50 [10] was 81.9 µM, the TGI [10] was greater than 100 µM and the GI50 [11] was greater than 100 µM. For the same compound, the TGI [11] was greater than 100 µM, the GI50 [12] was 65 µM and the TGI [12] was greater than 100 µM. It also gave a GI50 [13] greater than 100 µM, a TGI [13] greater than 100 µM and a GI50 [14] of 32.1 µM. The TGI [14] was greater than 100 µM, the GI50 [15] was 84.2 µM and the TGI [15] was greater than 100 µM. It also gave a GI50 [16] greater than 100 µM, a TGI [16] greater than 100 µM and a GI50 [17] greater than 100 µM. It also gave a TGI [17] greater than 100 µM, a GI50 [18] of 94.8 µM and a TGI [18] greater than 100 µM. For the same compound, the GI50 [19] was greater than 100 µM, the TGI [19] was greater than 100 µM and the GI50 [20] was greater than 100 µM. The TGI [20] was greater than 100 µM, the GI50 [21] was greater than 100 µM and the TGI [21] was greater than 100 µM. For the same compound, the GI50 [22] was greater than 100 µM, the TGI [22] was greater than 100 µM and the GI50 [23] was greater than 100 µM. The TGI [23] was greater than 100 µM, the GI50 [24] was 37.6 µM and the TGI [24] was greater than 100 µM. The GI50 [25] was greater than 100 µM, the TGI [25] was greater than 100 µM and the GI50 [26] was greater than 100 µM. It also gave a TGI [26] greater than 100 µM, a GI50 [27] greater than 100 µM and a TGI [27] greater than 100 µM. For the same compound, the GI50 [28] was 27.2 µM, the TGI [28] was 77.4 µM and the GI50 [29] was 24.4 µM. For the same compound, the TGI [29] was 76.8 µM, the GI50 [30] was 33.8 µM and the TGI [30] was greater than 100 µM. It also gave a GI50 [31] greater than 100 µM, a TGI [31] greater than 100 µM and a GI50 [32] of 21.7 µM. It also gave a TGI [32] of 52.3 µM, a GI50 [33] greater than 100 µM and a TGI [33] greater than 100 µM. It also gave a GI50 [34] greater than 100 µM, a TGI [34] greater than 100 µM and a GI50 [35] of 29.9 µM. The TGI [35] was greater than 100 µM, the GI50 [36] was greater than 100 µM and the TGI [36] was greater than 100 µM. For the same compound, the GI50 [37] was greater than 100 µM, the TGI [37] was greater than 100 µM and the GI50 [38] was greater than 100 µM. For the same compound, the TGI [38] was greater than 100 µM, the GI50 [39] was greater than 100 µM and the TGI [39] was greater than 100 µM. For the same compound, the GI50 [40] was 77.7 µM, the TGI [40] was greater than 100 µM and the GI50 [41] was 50.7 µM. For the same compound, the TGI [41] was greater than 100 µM, the GI50 [42] was greater than 100 µM and the TGI [42] was greater than 100 µM. For the same compound, the GI50 [43] was 53.8 µM, the TGI [43] was greater than 100 µM and the GI50 [44] was greater than 100 µM. For the same compound, the TGI [44] was greater than 100 µM, the GI50 [45] was 42.2 µM and the TGI [45] was greater than 100 µM. The GI50 [46] was greater than 100 µM, the TGI [46] was greater than 100 µM and the GI50 [47] was greater than 100 µM. For the same compound, the TGI [47] was greater than 100 µM, the GI50 [48] was greater than 100 µM and the TGI [48] was greater than 100 µM. It also gave a GI50 [49] greater than 100 µM, a TGI [49] greater than 100 µM and a GI50 [50] greater than 100 µM. The TGI [50] was greater than 100 µM, the GI50 [51] was greater than 100 µM and the TGI [51] was greater than 100 µM. For the same compound, the GI50 [52] was 76 µM, the TGI [52] was greater than 100 µM and the GI50 [53] was 28.7 µM. The TGI [53] was 71.6 µM, the GI50 [54] was 75.9 µM and the TGI [54] was greater than 100 µM. It also gave a GI50 [55] greater than 100 µM, a TGI [55] greater than 100 µM and a GI50 [56] greater than 100 µM. The TGI [56] was greater than 100 µM.

With `Cc1[nH]c2ccc(F)cc2c1-c1nc2c3cccnc3c3ncccc3c2[nH]1` the GI50 [1] was 0.35 µM, the TGI [1] was greater than 100 µM and the GI50 [2] was 0.387 µM. It also gave a TGI [2] greater than 100 µM, a GI50 [3] of 0.277 µM and a TGI [3] greater than 100 µM. For the same compound, the GI50 [4] was 0.393 µM, the TGI [4] was greater than 100 µM and the GI50 [57] was 0.134 µM. It also gave a TGI [57] greater than 100 µM, a GI50 [5] of 0.391 µM and a TGI [5] greater than 100 µM. The GI50 [7] was 0.345 µM, the TGI [7] was greater than 100 µM and the GI50 [9] was 0.479 µM. For the same compound, the TGI [9] was greater than 100 µM, the GI50 [10] was 0.263 µM and the TGI [10] was greater than 100 µM. The GI50 [58] was 0.51 µM, the TGI [58] was greater than 100 µM and the GI50 [11] was 0.358 µM. For the same compound, the TGI [11] was greater than 100 µM, the GI50 [12] was 0.205 µM and the TGI [12] was greater than 100 µM. It also gave a GI50 [13] of 3.43 µM, a TGI [13] greater than 100 µM and a GI50 [14] of 0.428 µM. For the same compound, the TGI [14] was greater than 100 µM, the GI50 [15] was 0.357 µM and the TGI [15] was greater than 100 µM. It also gave a GI50 [16] of 0.0966 µM, a TGI [16] greater than 100 µM and a GI50 [17] of 0.147 µM. For the same compound, the GI50 [18] was 0.231 µM, the TGI [18] was 0.678 µM and the GI50 [19] was 0.353 µM. It also gave a TGI [19] greater than 100 µM, a GI50 [20] of 0.268 µM and a TGI [20] greater than 100 µM. The GI50 [21] was 0.403 µM, the TGI [21] was greater than 100 µM and the GI50 [23] was 0.308 µM. The TGI [23] was greater than 100 µM, the GI50 [24] was 0.244 µM and the TGI [24] was greater than 100 µM. The GI50 [25] was 0.374 µM, the TGI [25] was greater than 100 µM and the GI50 [26] was 0.298 µM. It also gave a TGI [26] greater than 100 µM, a GI50 [27] of 0.351 µM and a TGI [27] greater than 100 µM. The GI50 [28] was 0.305 µM, the TGI [28] was greater than 100 µM and the GI50 [29] was 0.354 µM. For the same compound, the TGI [29] was greater than 100 µM, the GI50 [30] was 0.384 µM and the TGI [30] was greater than 100 µM. For the same compound, the GI50 [31] was 0.41 µM, the TGI [31] was greater than 100 µM and the GI50 [32] was 0.422 µM. For the same compound, the TGI [32] was greater than 100 µM, the GI50 [33] was 0.397 µM and the TGI [33] was greater than 100 µM. The GI50 [34] was 0.36 µM, the TGI [34] was greater than 100 µM and the GI50 [35] was 0.283 µM. It also gave a TGI [35] greater than 100 µM, a GI50 [37] of 0.321 µM and a TGI [37] greater than 100 µM. For the same compound, the GI50 [38] was 0.361 µM, the TGI [38] was greater than 100 µM and the GI50 [39] was 0.241 µM. It also gave a GI50 [40] of 0.46 µM, a TGI [40] greater than 100 µM and a GI50 [41] of 0.327 µM. The TGI [41] was greater than 100 µM, the GI50 [42] was 0.374 µM and the TGI [42] was greater than 100 µM. For the same compound, the GI50 [43] was 0.295 µM, the TGI [43] was greater than 100 µM and the GI50 [44] was 0.701 µM. For the same compound, the TGI [44] was greater than 100 µM, the GI50 [45] was 0.944 µM and the TGI [45] was greater than 100 µM. It also gave a GI50 [47] of 0.278 µM, a TGI [47] greater than 100 µM and a GI50 [48] of 0.278 µM. For the same compound, the TGI [48] was greater than 100 µM, the GI50 [50] was 0.426 µM and the TGI [50] was greater than 100 µM. It also gave a GI50 [51] of 0.327 µM, a TGI [51] greater than 100 µM and a GI50 [52] of 0.418 µM. It also gave a TGI [52] greater than 100 µM, a GI50 [55] of 0.193 µM and a TGI [55] greater than 100 µM. The GI50 [56] was 0.19 µM and the TGI [56] was 0.516 µM.
